US20020137929A1, “1 - (3-heterocyclylphenyl) isothiourea, -isourea, -guanidine and -amidine herbicidal agents” (Intellectual Property Department, BASF Aktiengesellschaft, priority 1998, published 2002)

Key:
MOOVA (Monochoria) = assay: Postemergence weed control under flooded paddy conditions; type: in vivo, Monochoria vaginalis; details: postemergence weeds
Summary of the method: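 Herbicidal effect is judged by eye on a 0–9 scale versus control, 3–4 weeks after dosing. Dosing is into flood water kept 1.5–3 cm over the soil, at about 0.0313–0.500 kg/ha in aqueous/acetone 50/50 v/v, on 3–5 cm weeds and 1.5–2.5-leaf rice seedlings.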

ECHCG (Barnyardgrass) = assay: Postemergence herbicidal evaluation; type: in vivo, Echinochloa crus-galli; details: for ECHCG herbicidal rating: postemergence
Summary of the method: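 Two-week-old seedlings sprayed with compound in 50/50 acetone/water plus 0.5% TWEEN 20, at about 0.0156 to 0.500 kg/ha, nozzle at 40 psi. Kept in greenhouse; rated visually 4-5 weeks after treatment on a 0-9 scale versus control, repeat tests averaged.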

CYPSE (Flatsedge) = assay: Preemergence weed control under flooded paddy conditions; type: in vivo, Cyperus serotinus; details: rated 3-4 weeks after treatment
Summary of the method: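 Flooded-pot preemergence screen with silt loam and seeds in the upper 0.5 cm. Dose about 0.0313 to 0.500 kg/ha, delivered into flood water; visual 0-9 score after 3 to 4 weeks.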

ORYSAT (Rice, Tebonnet) = assay: Preemergence herbicidal evaluation; type: in vivo, Oryza sativa, (L.) Tebonnet; details: rated 4-5 weeks after treatment; for ORYSAT rating: preemergence, 0-9 scale
Summary of the method: (§1)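 Scores use a 0–9 visual scale covering stand, vigor, malformation, size and chlorosis relative to controls, rated four to five weeks after treatment. Before emergence, soil-planted seeds were sprayed with compound in aqueous acetone at roughly 0.0156–0.500 kg/ha and held in the greenhouse.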

[1] = test system: CHEAL (Lambsquarters, Common); assay: Preemergence herbicidal evaluation; type: in vivo, Chenopodium album; details: rated 4-5 weeks after treatment; for CHEAL rating: preemergence, 0-9 scale
Summary of the method: as §1

[2] = test system: ECHORC (Watergrass (Calif.)); assay: Preemergence weed control under flooded paddy conditions; type: in vivo, Echinochloa oryzoides; details: rated 3-4 weeks after treatment
Summary of the method: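 Herbicidal effect is scored visually on a 0-9 scale against an untreated control, three to four weeks after compounds are pipetted into the flood water (1.5 to 3 cm deep) over seeds planted in silt loam at 0.5 cm depth. Rates: about 0.0313 to 0.500 kg/ha.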

[3] = rate 0.0313 kg/ha, 3-4 weeks after treatment
[4] = rate 0.0625 kg/ha, 3-4 weeks after treatment
[5] = rate 0.1250 kg/ha, 3-4 weeks after treatment
[6] = rate 0.2500 kg/ha, 3-4 weeks after treatment
[7] = Rate 0.0313 kg/ha, rated 3 to 4 weeks after treatment
[8] = Rate 0.0625 kg/ha, rated 3 to 4 weeks after treatment
[9] = Rate 0.1250 kg/ha, rated 3 to 4 weeks after treatment
[10] = Rate 0.2500 kg/ha, rated 3 to 4 weeks after treatment

CCOC(=O)CN1C(=O)CS(=O)(=O)C1=Nc1cc(-n2c(=O)cc(C(F)(F)F)n(C)c2=O)c(F)cc1Cl [Compound 46, 2-{{2-Chloro-5-[3,6-dihydro-3-methyl-2,6-dioxo-4-(trifluoromethyl)-1(2H)-pyrimidinyl]-4-fluoro-phenyl}imino}-4-oxo-3-thiazolidineacetic acid, ethyl ester, 1,1-dioxide]
Herbicidal rating MOOVA (MOOVA (Monochoria); [3]): 3.0 | Herbicidal rating MOOVA (MOOVA (Monochoria); [4]): 4.0 | Herbicidal rating MOOVA (MOOVA (Monochoria); [5]): 6.0 | Herbicidal rating MOOVA (MOOVA (Monochoria); [6]): 7.0 | Postemergence herbicidal rating ECHCG (ECHCG (Barnyardgrass); Rate 0.0313 kg/ha): 0.0 | Postemergence herbicidal rating ECHCG (ECHCG (Barnyardgrass); Rate 0.0625 kg/ha): 0.0 | Herbicidal rating CYPSE (CYPSE (Flatsedge); 0.0313 kg/ha): 0.0 | Herbicidal rating CYPSE (CYPSE (Flatsedge); 0.0625 kg/ha): 0.0 | Herbicidal rating CYPSE (CYPSE (Flatsedge); 0.1250 kg/ha): 0.0 | Herbicidal rating CYPSE (CYPSE (Flatsedge); 0.2500 kg/ha): 6.0 | Preemergence herbicidal rating ORYSAT (ORYSAT (Rice, Tebonnet); rate 0.1250 kg/ha): 0.0 | Preemergence herbicidal rating ORYSAT (ORYSAT (Rice, Tebonnet); rate 0.2500 kg/ha): 0.0 | Preemergence herbicidal rating CHEAL ([1]; rate 0.1250 kg/ha): 9.0 | Preemergence herbicidal rating CHEAL ([1]; rate 0.2500 kg/ha): 9.0 | Herbicidal rating ECHORC ([2]; 0.0313 kg/ha): 0.0 | Herbicidal rating ECHORC ([2]; 0.0625 kg/ha): 0.0 | Herbicidal rating ECHORC ([2]; 0.1250 kg/ha): 0.0 | Herbicidal rating ECHORC ([2]; 0.2500 kg/ha): 4.0

C=CCN1C(=O)C(CC(=O)NC)SC1=Nc1cc(-n2c(=O)cc(C(F)(F)F)n(C)c2=O)c(F)cc1Cl (stereo not drawn) [Compound 84, 3-Allyl-2-{{2-chloro-5-[3,6-dihydro-3-methyl-2,6-dioxo-4-(trifluoromethyl)-1(2H)-pyrimidinyl]-4-fluorophenyl}imino}-N-methyl-4-oxo-5-thiazolidineacetamide]
Herbicidal rating MOOVA (MOOVA (Monochoria); [7]): 9.0 | Herbicidal rating MOOVA (MOOVA (Monochoria); [8]): 9.0 | Herbicidal rating MOOVA (MOOVA (Monochoria); [9]): 9.0 | Herbicidal rating MOOVA (MOOVA (Monochoria); [10]): 9.0 | ECHCG herbicidal rating (ECHCG (Barnyardgrass); rate 0.0156 kg/ha): 0.0 | ECHCG herbicidal rating (ECHCG (Barnyardgrass); rate 0.0313 kg/ha): 0.0 | ECHCG herbicidal rating (ECHCG (Barnyardgrass); rate 0.0625 kg/ha): 0.0 | ECHCG herbicidal rating (ECHCG (Barnyardgrass); rate 0.1250 kg/ha): 0.0 | CYPSE herbicidal effect rating (CYPSE (Flatsedge); 0.0313 kg/ha): 0.0 | CYPSE herbicidal effect rating (CYPSE (Flatsedge); 0.0625 kg/ha): 3.0 | CYPSE herbicidal effect rating (CYPSE (Flatsedge); 0.1250 kg/ha): 9.0 | CYPSE herbicidal effect rating (CYPSE (Flatsedge); 0.2500 kg/ha): 9.0 | ORYSAT rating (ORYSAT (Rice, Tebonnet); 0.0156 kg/ha): 0.0 | ORYSAT rating (ORYSAT (Rice, Tebonnet); 0.0313 kg/ha): 0.0 | ORYSAT rating (ORYSAT (Rice, Tebonnet); 0.0625 kg/ha): 0.0 | ORYSAT rating (ORYSAT (Rice, Tebonnet); 0.1250 kg/ha): 0.0 | ORYSAT rating (ORYSAT (Rice, Tebonnet); 0.2500 kg/ha): 3.0 | ORYSAT rating (ORYSAT (Rice, Tebonnet); 0.5000 kg/ha): 9.0 | CHEAL rating ([1]; 0.0156 kg/ha): 5.0 | CHEAL rating ([1]; 0.0313 kg/ha): 9.0 | CHEAL rating ([1]; 0.0625 kg/ha): 9.0 | CHEAL rating ([1]; 0.1250 kg/ha): 9.0 | CHEAL rating ([1]; 0.2500 kg/ha): 9.0 | CHEAL rating ([1]; 0.5000 kg/ha): 9.0 | ECHORC herbicidal effect rating ([2]; 0.0313 kg/ha): 4.0 | ECHORC herbicidal effect rating ([2]; 0.0625 kg/ha): 5.0 | ECHORC herbicidal effect rating ([2]; 0.1250 kg/ha): 7.0 | ECHORC herbicidal effect rating ([2]; 0.2500 kg/ha): 9.0

CCOC(=O)CN1C(=O)C(CC(=O)NO)S/C1=N/c1cc(-n2c(=O)cc(C(F)(F)F)n(C)c2=O)c(F)cc1Cl (stereo not drawn) [Compound 98, Ethyl 2-{{2-chloro-5-[3,6-dihydro-3-methyl-2,6-dioxo-4-(trifluoromethyl)-1(2H)-pyrimidinyl]-4-fluorophenyl}imino}-5-[(hydroxycarbamoyl)methyl]-4-oxo-3-thiazolidineacetate]
Herbicidal rating MOOVA (MOOVA (Monochoria); [7]): 9.0 | Herbicidal rating MOOVA (MOOVA (Monochoria); [8]): 9.0 | Herbicidal rating MOOVA (MOOVA (Monochoria); [9]): 9.0 | Herbicidal rating MOOVA (MOOVA (Monochoria); [10]): 9.0 | ECHCG herbicidal rating (ECHCG (Barnyardgrass); rate 0.0156 kg/ha): 0.0 | ECHCG herbicidal rating (ECHCG (Barnyardgrass); rate 0.0313 kg/ha): 0.0 | ECHCG herbicidal rating (ECHCG (Barnyardgrass); rate 0.0625 kg/ha): 1.0 | ECHCG herbicidal rating (ECHCG (Barnyardgrass); rate 0.1250 kg/ha): 1.0 | CYPSE herbicidal effect rating (CYPSE (Flatsedge); 0.0313 kg/ha): 2.0 | CYPSE herbicidal effect rating (CYPSE (Flatsedge); 0.0625 kg/ha): 3.0 | CYPSE herbicidal effect rating (CYPSE (Flatsedge); 0.1250 kg/ha): 4.0 | CYPSE herbicidal effect rating (CYPSE (Flatsedge); 0.2500 kg/ha): 4.0 | ORYSAT rating (ORYSAT (Rice, Tebonnet); 0.0156 kg/ha): 0.0 | ORYSAT rating (ORYSAT (Rice, Tebonnet); 0.0313 kg/ha): 0.0 | ORYSAT rating (ORYSAT (Rice, Tebonnet); 0.0625 kg/ha): 0.0 | ORYSAT rating (ORYSAT (Rice, Tebonnet); 0.1250 kg/ha): 0.0 | ORYSAT rating (ORYSAT (Rice, Tebonnet); 0.2500 kg/ha): 1.0 | ORYSAT rating (ORYSAT (Rice, Tebonnet); 0.5000 kg/ha): 4.0 | CHEAL rating ([1]; 0.0156 kg/ha): 0.0 | CHEAL rating ([1]; 0.0313 kg/ha): 2.0 | CHEAL rating ([1]; 0.0625 kg/ha): 5.0 | CHEAL rating ([1]; 0.1250 kg/ha): 7.0 | CHEAL rating ([1]; 0.2500 kg/ha): 9.0 | CHEAL rating ([1]; 0.5000 kg/ha): 9.0 | ECHORC herbicidal effect rating ([2]; 0.0313 kg/ha): 0.0 | ECHORC herbicidal effect rating ([2]; 0.0625 kg/ha): 0.0 | ECHORC herbicidal effect rating ([2]; 0.1250 kg/ha): 1.0 | ECHORC herbicidal effect rating ([2]; 0.2500 kg/ha): 3.0

CCOC(=O)CN1C(=O)CSC1=Nc1cc(-n2c(=O)cc(C(F)(F)F)n(C)c2=O)c(F)cc1Cl [Compound 8, Ethyl 2-{{2-chloro-5-[3,6-dihydro-3-methyl-2,6-dioxo-4-(trifluoromethyl)-1(2H)pyrimidinyl]-4-fluorophenyl}imino}-4-oxo-3-thiazolidineacetate]
Herbicidal rating MOOVA (MOOVA (Monochoria); [3]): 9.0 | Herbicidal rating MOOVA (MOOVA (Monochoria); [4]): 9.0 | Herbicidal rating MOOVA (MOOVA (Monochoria); [5]): 9.0 | Herbicidal rating MOOVA (MOOVA (Monochoria); [6]): 9.0 | ECHCG herbicidal rating (ECHCG (Barnyardgrass); rate 0.0157 kg/ha): 3.0 | ECHCG herbicidal rating (ECHCG (Barnyardgrass); rate 0.0313 kg/ha): 2.1 | ECHCG herbicidal rating (ECHCG (Barnyardgrass); rate 0.0625 kg/ha): 5.3 | ECHCG herbicidal rating (ECHCG (Barnyardgrass); rate 0.1250 kg/ha): 8.2 | Herbicidal rating CYPSE (CYPSE (Flatsedge); 0.0313 kg/ha): 0.0 | Herbicidal rating CYPSE (CYPSE (Flatsedge); 0.0625 kg/ha): 0.0 | Herbicidal rating CYPSE (CYPSE (Flatsedge); 0.1250 kg/ha): 0.0 | Herbicidal rating CYPSE (CYPSE (Flatsedge); 0.2500 kg/ha): 0.0 | ORYSAT preemergence herbicidal rating (ORYSAT (Rice, Tebonnet); rate 0.0156 kg/ha): 0.6 | ORYSAT preemergence herbicidal rating (ORYSAT (Rice, Tebonnet); rate 0.0313 kg/ha): 0.8 | ORYSAT preemergence herbicidal rating (ORYSAT (Rice, Tebonnet); rate 0.0625 kg/ha): 2.8 | ORYSAT preemergence herbicidal rating (ORYSAT (Rice, Tebonnet); rate 0.1250 kg/ha): 5.4 | ORYSAT preemergence herbicidal rating (ORYSAT (Rice, Tebonnet); rate 0.2500 kg/ha): 7.1 | ORYSAT preemergence herbicidal rating (ORYSAT (Rice, Tebonnet); rate 0.5000 kg/ha): 8.5 | CHEAL preemergence herbicidal rating ([1]; rate 0.0156 kg/ha): 9.0 | CHEAL preemergence herbicidal rating ([1]; rate 0.0313 kg/ha): 9.0 | CHEAL preemergence herbicidal rating ([1]; rate 0.0625 kg/ha): 9.0 | CHEAL preemergence herbicidal rating ([1]; rate 0.1250 kg/ha): 9.0 | CHEAL preemergence herbicidal rating ([1]; rate 0.2500 kg/ha): 9.0 | CHEAL preemergence herbicidal rating ([1]; rate 0.5000 kg/ha): 9.0 | Herbicidal rating ECHORC ([2]; 0.0313 kg/ha): 6.5 | Herbicidal rating ECHORC ([2]; 0.0625 kg/ha): 6.5 | Herbicidal rating ECHORC ([2]; 0.1250 kg/ha): 7.5 | Herbicidal rating ECHORC ([2]; 0.2500 kg/ha): 8.5
